Test systems include A498 renal; SR leukemia; RXF 393 renal; PC-3 prostate; CAKI-1 renal; OVCAR-4 ovarian; HCT-15 colon; MCF7 breast; MDA-MB-435; OVCAR-8 ovarian.
Common to all, as to assay: NCI-60 cell line screen, 48 h

Structures are written as SMILES.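 1) Cells in 96-well plates. 2) Compound, 48 h, 5 concentrations. 3) Linear interpolation between surrounding doses. 4) Unreached endpoint = highest concentration. Abbreviation: GI50, concentration required for 50% inhibition of growth. The concentration for full growth arrest is given as TGI.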

With `Cc1ccc(-c2nc3nc(-c4ccc(F)cc4)nc(N4CCNCC4)c3o2)cc1`, the GI50 is 16.1 µM in the assay with A498 renal; 0.323 µM in the assay on SR leukemia; 10.7 µM in the assay on RXF 393 renal; 1.91 µM in the assay with PC-3 prostate; 1.55 µM with CAKI-1 renal; 1.89 µM in the assay with OVCAR-4 ovarian. The GI50 in the assay with HCT-15 colon was 1.67 µM; with MCF7 breast, 1.66 µM; in the assay with MDA-MB-435, 1.78 µM; in the assay with OVCAR-8 ovarian it was 2.35 µM. The TGI with A498 renal was 30.5 µM; in the assay on SR leukemia, 1.13 µM; with RXF 393 renal, 23.2 µM; in the assay on PC-3 prostate it was 4.69 µM; in the assay on CAKI-1 renal, 2.92 µM; with OVCAR-4 ovarian it was 3.5 µM. The TGI was found to be 3.38 µM with HCT-15 colon, 3.51 µM with MCF7 breast, 3.24 µM with MDA-MB-435 and 5.82 µM in the assay with OVCAR-8 ovarian.

Regarding `CCN1CCC(CC(=O)Nc2n[nH]c3nnc(-c4cccc(F)c4F)cc23)CC1`, the GI50 in the assay with A498 renal was 2.84 µM; in the assay with SR leukemia it was over 25 µM; in the assay on RXF 393 renal, 5.56 µM; with PC-3 prostate, over 25 µM; with CAKI-1 renal it was over 25 µM; with OVCAR-4 ovarian, over 25 µM. Besides, the GI50 was over 25 µM with HCT-15 colon, 4.11 µM in the assay with MCF7 breast, over 25 µM in the assay with MDA-MB-435 and over 25 µM with OVCAR-8 ovarian. Besides, the TGI with A498 renal, in the assay on SR leukemia, in the assay with RXF 393 renal, with PC-3 prostate, with CAKI-1 renal and with OVCAR-4 ovarian was over 25 µM throughout. The TGI in the assay with HCT-15 colon, in the assay on MCF7 breast, in the assay with MDA-MB-435 and with OVCAR-8 ovarian was over 25 µM each time.

In the case of `Oc1c(C(Nc2ccccn2)c2cccc(Oc3ccccc3)c2)ccc2cccnc12` (stereo not given), the GI50 was 0.262 µM with A498 renal; 0.508 µM in the assay with SR leukemia; 1.32 µM in the assay on RXF 393 renal; 0.483 µM in the assay with PC-3 prostate; 0.319 µM with CAKI-1 renal; 0.361 µM with OVCAR-4 ovarian. Besides, the GI50 was 0.331 µM with HCT-15 colon, 0.416 µM in the assay with MCF7 breast, 0.496 µM in the assay on MDA-MB-435 and 0.424 µM with OVCAR-8 ovarian. The TGI was 6.22 µM in the assay with A498 renal; over 100 µM in the assay on SR leukemia; 22.1 µM in the assay with RXF 393 renal; 20.1 µM in the assay with PC-3 prostate; 10 µM with CAKI-1 renal; 13.4 µM in the assay with OVCAR-4 ovarian. Moreover, the TGI in the assay on HCT-15 colon is over 100 µM; in the assay with MCF7 breast, 13.9 µM; in the assay on MDA-MB-435, 16.4 µM; in the assay with OVCAR-8 ovarian, 19.7 µM.

Regarding `CCCCCCC1N=C(N)N=C(N)N1c1cccc(Cl)c1` (stereo not given), the GI50 was 2.67 µM with A498 renal; 0.748 µM in the assay with SR leukemia; 3.44 µM with RXF 393 renal; 0.0576 µM in the assay on PC-3 prostate; 21.8 µM in the assay with CAKI-1 renal; 1.76 µM in the assay with OVCAR-4 ovarian. Moreover, the GI50 in the assay with HCT-15 colon was 21.6 µM; in the assay on MCF7 breast, 0.368 µM; in the assay with MDA-MB-435, 0.0479 µM; in the assay with OVCAR-8 ovarian, 0.612 µM. The TGI was 15.6 µM in the assay on A498 renal; over 42.7 µM in the assay on SR leukemia; 15.7 µM in the assay on RXF 393 renal; 16 µM with PC-3 prostate; over 78.5 µM in the assay with CAKI-1 renal; 38.2 µM in the assay with OVCAR-4 ovarian. For the same molecule, the TGI in the assay with HCT-15 colon is over 100 µM; in the assay with MCF7 breast, 12.7 µM; in the assay with MDA-MB-435 it was 13.2 µM; in the assay on OVCAR-8 ovarian, 19.5 µM.

With `CCn1c(-c2nonc2N)nc2c(C#CC(C)(C)O)ncc(OC3CCNCC3)c21`, the GI50 is 0.0958 µM in the assay with A498 renal; 9.64 µM in the assay on SR leukemia; 2.84 µM in the assay with RXF 393 renal; 7.58 µM in the assay on PC-3 prostate; over 25 µM in the assay on CAKI-1 renal; 14.1 µM in the assay with OVCAR-4 ovarian. The GI50 was over 25 µM in the assay on HCT-15 colon, 3.93 µM with MCF7 breast, 13.6 µM in the assay with MDA-MB-435 and 12.9 µM with OVCAR-8 ovarian. Besides, the TGI in the assay with A498 renal was 13.4 µM; in the assay on SR leukemia, over 21.3 µM; in the assay on RXF 393 renal, 13.3 µM; in the assay on PC-3 prostate, over 25 µM; with CAKI-1 renal, over 25 µM; in the assay on OVCAR-4 ovarian, over 25 µM. The TGI with HCT-15 colon is over 25 µM; in the assay on MCF7 breast it was over 22.5 µM; with MDA-MB-435, over 25 µM; in the assay with OVCAR-8 ovarian it was over 25 µM.

For the molecule `CN1CCN(Cc2ccc(NC(=O)c3cncc(C#Cc4c(N)ncc5ccc(C#N)cc45)c3)cc2C(F)(F)F)CC1`, the GI50 with A498 renal is 1.07 µM; in the assay on SR leukemia, 0.547 µM; in the assay on RXF 393 renal, 1.08 µM; in the assay with PC-3 prostate, 0.891 µM; in the assay on CAKI-1 renal, 0.943 µM; in the assay with OVCAR-4 ovarian it was 0.558 µM. Moreover, the GI50 was 0.827 µM with HCT-15 colon, 0.694 µM in the assay with MCF7 breast, 0.333 µM in the assay on MDA-MB-435 and 0.926 µM with OVCAR-8 ovarian. The TGI is 6.35 µM with A498 renal; 2.57 µM with SR leukemia; 2.88 µM in the assay on RXF 393 renal; 1.75 µM in the assay with PC-3 prostate; 1.93 µM with CAKI-1 renal; 1.37 µM in the assay on OVCAR-4 ovarian. Besides, the TGI in the assay on HCT-15 colon was 1.72 µM; in the assay with MCF7 breast, 1.59 µM; with MDA-MB-435 it was 1.07 µM; with OVCAR-8 ovarian, 1.87 µM.

Take `O=C(O)CCCCn1ccc(=O)[nH]c1=O`: the TGI in the assay with A498 renal, in the assay on SR leukemia, in the assay on RXF 393 renal, in the assay with PC-3 prostate, with CAKI-1 renal and in the assay with OVCAR-4 ovarian was over 100 µM each time. For the same molecule, the TGI with HCT-15 colon, with MCF7 breast, in the assay on MDA-MB-435 and with OVCAR-8 ovarian was over 100 µM each time.

Turning to `C/C(CCC(=O)O)=N/Nc1ccc([N+](=O)[O-])cc1`, the GI50 with A498 renal is over 100 µM; in the assay with SR leukemia, 9.3 µM; with RXF 393 renal, over 100 µM; in the assay on PC-3 prostate, 11.5 µM; in the assay on CAKI-1 renal, 3.69 µM; in the assay on OVCAR-4 ovarian it was over 100 µM. The GI50 in the assay on HCT-15 colon was 3.35 µM; in the assay on MCF7 breast, 24.4 µM; in the assay on MDA-MB-435 it was 4.37 µM; with OVCAR-8 ovarian it was 42.6 µM. The TGI with A498 renal, in the assay on SR leukemia, in the assay on RXF 393 renal, with PC-3 prostate, with CAKI-1 renal and in the assay with OVCAR-4 ovarian was over 100 µM each time. The TGI in the assay on HCT-15 colon, in the assay on MCF7 breast, with MDA-MB-435 and in the assay on OVCAR-8 ovarian was over 100 µM each time.

The values above are taken from PubChem BioAssay (NCI).
